Values after ≈ are worked out from the molar mass of the structure shown. Read-outs that look alike come from different tables or passages of the source.
How the values were obtained:
[1] = test system: C. albicans ATCC 64124 (strain B); assay: MIC, broth microdilution (CLSI M27-A3), yeast strain B; type: cell-based; conditions: Candida albicans, ATCC64124; MIC-0, strain B, 35 °C 48 h
Description: (§1) The final concentrations of compounds 3, 4, 7a, 7b, 9, and 16, as well as that of TOB tested in this study ranged from 0.24–62.5 μg/mL. CAS was used as a positive control and the final concentrations tested for CAS ranged from 0.03–31.3 μg/mL. Briefly, overnight yeast cultures were grown in yeast peptone dextrose (YPD) broth and the cell density was adjusted to an OD600 of 0.12 (~1 × 10^6 CFU/mL) by using a spectrophotometer. Yeast cell suspensions were further diluted to achieve 1–5 × 10^3 CFU/mL in RPMI 1640 medium, and 100 μL of these yeast cells was added to 96-well microtiter plates containing RPMI 1640 medium and titrated compounds. Each test was performed in triplicate. The plates were incubated at 35 °C for 48 h.

[2] = test system: Candida parapsilosis clinical isolate CP2; assay: MIC, broth microdilution (CLSI M27-A3), CP2; type: cell-based; conditions: Lodderomyces parapsilosis; MIC-0, CP2, 35 °C 48 h
Description: as §1

[3] = test system: Aspergillus terreus ATCC MYA-3633 (strain M); assay: MIC, filamentous fungi (CLSI M38-A2), strain M; type: cell-based; conditions: MIC-0, strain M, 35 °C 72 h
Description: (§2) The spores were harvested from sporulating cultures growing on potato dextrose agar (PDA) by filtration through sterile glass wool and enumerated by using a hemocytometer (Hausser Scientific, Horsham, PA, USA) to obtain the desired inoculum size. Two-fold serial dilutions of compounds 3, 4, 7a, 7b, 9, and 16, as well as CAS and TOB were made in sterile 96-well microtiter plates to obtain the final concentration range of 0.24–62.5 μg/mL for TOB and TOB derivatives as well as 0.03–31.3 μg/mL for CAS in the RPMI 1640 medium. The spore suspensions were added to the wells to afford a final concentration of 5 × 10^5 spores/mL. The plates were incubated at 35 °C for 72 h. […] Each test was performed in triplicate.

[4] = test system: C. albicans ATCC MYA-2876(S) (strain C); assay: MIC, broth microdilution (CLSI M27-A3), yeast strain C; type: cell-based; conditions: Candida albicans; MIC-0, strain C, 35 °C 48 h
Description: as §1

BEAS-2B cell line = assay: In vitro cytotoxicity assay (resazurin), BEAS-2B; type: cell-based, human; conditions: Homo sapiens, 24 h, resazurin
Description: Mammalian cytotoxicity assays were performed as previously described with minor modifications. The normal human bronchial epithelial cells BEAS-2B and the human lung carcinoma epithelial cells A549 were grown in DMEM containing 10% fetal bovine serum (FBS) and 1% antibiotics. The confluent cells were then trypsinized with 0.05% trypsin and 0.53 mM EDTA, and resuspended in fresh DMEM medium. The cells were transferred into 96-well microtiter plates at a density of 3000 cells/well and were grown for 24 h. The following day, the medium was replaced by a fresh culture medium containing serially diluted compounds 3, 4, 7a, 7b, and 9, as well as the parent drug TOB at final concentrations of 0.48–62.5 μg/mL or sterile ddH2O (negative control). The cells were incubated for an additional 24 h at 37 °C with 5% CO2 in a humidified incubator. To evaluate cell survival, each well was treated with 10 μL (25 μg/mL) of resazurin sodium salt (Sigma-Aldrich) for 4–6 h. Metabolically active cells can convert resazurin (blue) to the highly fluorescent dye resorufin (pink), which was detected at λ560 excitation and λ590 emission wavelengths by using a SpectraMax M5 plate reader. Triton X-100® (1% v/v) gave the complete loss of cell viability and was used as the positive control. The percentage survival rates were calculated by using the following formula: % cell survival = [(fluorescence of sample) − (fluorescence of blank)] × 100/[(fluorescence of negative control) − (fluorescence of blank)].

[5] = test system: C. albicans ATCC MYA-1003(R) (strain G); assay: MIC, broth microdilution (CLSI M27-A3), yeast strain G; type: cell-based; conditions: Candida albicans; MIC-0, strain G, 35 °C 48 h
Description: as §1

[6] = test system: C. albicans ATCC MYA-1237(R) (strain F); assay: MIC, broth microdilution (CLSI M27-A3), yeast strain F; type: cell-based; conditions: Candida albicans; MIC-0, strain F, 35 °C 48 h
Description: as §1

[7] = test system: Candida glabrata clinical isolate CG1; assay: MIC, broth microdilution (CLSI M27-A3), CG1; type: cell-based; conditions: Nakaseomyces glabratus; MIC-0, CG1, 35 °C 48 h
Description: as §1

[8] = test system: Aspergillus nidulans ATCC 38163 (strain L); assay: MIC, filamentous fungi (CLSI M38-A2), strain L; type: cell-based; conditions: MIC-0, strain L, 35 °C 72 h
Description: as §2

[9] = test system: C. albicans ATCC MYA-2310(S) (strain E); assay: MIC, broth microdilution (CLSI M27-A3), yeast strain E; type: cell-based; conditions: Candida albicans; MIC-0, strain E, 35 °C 48 h
Description: as §1

[10] = test system: Candida parapsilosis ATCC 22019 (strain J); assay: MIC, broth microdilution (CLSI M27-A3), yeast strain J; type: cell-based; conditions: Lodderomyces parapsilosis, ATCC22019; MIC-0, strain J, 35 °C 48 h
Description: as §1

[11] = test system: C. albicans ATCC 10231 (strain A); assay: MIC, broth microdilution (CLSI M27-A3), yeast strain A; type: cell-based, Candida albicans; conditions: Candida albicans, ATCC10231; MIC-0, strain A, 35 °C 48 h
Description: as §1

[12] = test system: Candida glabrata clinical isolate CG2; assay: MIC, broth microdilution (CLSI M27-A3), CG2; type: cell-based; conditions: Nakaseomyces glabratus; MIC-0, CG2, 35 °C 48 h
Description: as §1

[13] = test system: Candida parapsilosis clinical isolate CP3; assay: MIC, broth microdilution (CLSI M27-A3), CP3; type: cell-based; conditions: MIC-0, CP3, 35 °C 48 h
Description: as §1

[14] = test system: Candida krusei ATCC 6258 (strain I); assay: MIC, broth microdilution (CLSI M27-A3), yeast strain I; type: cell-based; conditions: Pichia kudriavzevii, ATCC6258; MIC-0, strain I, 35 °C 48 h
Description: as §1

[15] = test system: nine non-albicans Candida strains (H-J, CG1-3, CP1-3); assay: MIC across the panel of nine non-albicans Candida strains; type: cell-based, Candida glabrata, Candida krusei, Candida parapsilosis
Description: as §1

[16] = test system: Cryptococcus neoformans clinical isolate CN2; assay: MIC, broth microdilution (CLSI M27-A3), CN2; type: cell-based; conditions: MIC-0, CN2, 35 °C 48 h
Description: as §1

[17] = test system: Cryptococcus neoformans clinical isolate CN3; assay: MIC, broth microdilution (CLSI M27-A3), CN3; type: cell-based; conditions: MIC-0, CN3, 35 °C 48 h
Description: as §1

[18] = test system: Cryptococcus neoformans clinical isolate CN1; assay: MIC, broth microdilution (CLSI M27-A3), CN1; type: cell-based; conditions: MIC-0, CN1, 35 °C 48 h
Description: as §1

[19] = test system: Candida parapsilosis clinical isolate CP1; assay: MIC, broth microdilution (CLSI M27-A3), CP1; type: cell-based; conditions: Lodderomyces parapsilosis; MIC-0, CP1, 35 °C 48 h
Description: as §1

[20] = Aspergillus nidulans, ATCC38163, 72 h, read-out: MIC

Compound	MIC [1] [µg/mL]	MIC [2] [µg/mL]	MIC [3] [µg/mL]	MIC [4] [µg/mL]	IC50 (BEAS-2B cell line) [µg/mL]	MIC [5] [µg/mL]	MIC [6] [µg/mL]	MIC [7] [µg/mL]	MIC [8, 20] [µg/mL]	MIC [8] [µg/mL]	MIC [9] [µg/mL]	MIC [10] [µg/mL]	MIC [11] [µg/mL]	MIC [12] [µg/mL]	MIC [13] [µg/mL]	MIC [14] [µg/mL]	MIC [15] [µg/mL]	MIC [16] [µg/mL]	MIC [17] [µg/mL]	MIC [18] [µg/mL]	further results
CCCCCCCCCCCCSC[C@H]1O[C@H](O[C@@H]2[C@@H](O)[C@H](O[C@H]3O[C@H](CN)[C@@H](O)C[C@H]3N)[C@@H](N)C[C@H]2N)[C@H](O)[C@@H](N)[C@@H]1O [Compound 3, O-3-Amino-3-deoxy-6-S-dodecyl-6-thio-α-D-glucopyranosyl-(1→6)-O-[2,6-diamino-2,3,6-trideoxy-α-D-ribo-hexopyranosyl-(1→4)]-2-deoxy-D-streptamine]	15.6 (≈ 23.9 µM)	7.8 (≈ 12 µM)	> 62.5	15.6 (≈ 23.9 µM)	31.3 to 62.5 (≈ 48 to 95.9 µM)	15.6 (≈ 23.9 µM)	7.8 (≈ 12 µM)	15.6 (≈ 23.9 µM)	1.95 to 3.9 (≈ 2.99 to 5.98 µM)	3.9 (≈ 5.98 µM)	15.6 (≈ 23.9 µM)	7.8 (≈ 12 µM)	15.6 (≈ 23.9 µM)	7.8 (≈ 12 µM)	15.6 (≈ 23.9 µM)	3.9 (≈ 5.98 µM)	3.9 to 15.6 (≈ 5.98 to 23.9 µM)	0.48 (≈ 0.736 µM)	0.48 (≈ 0.736 µM)	0.975 (≈ 1.5 µM)	MIC [19]: 15.6 µg/mL (≈ 23.9 µM)
CCCCCCCCCCCCS(=O)(=O)C[C@H]1O[C@H](O[C@@H]2[C@@H](O)[C@H](O[C@H]3O[C@H](CN)[C@@H](O)C[C@H]3N)[C@@H](N)C[C@H]2N)[C@H](O)[C@@H](N)[C@@H]1O [Compound 4, O-3-Amino-3,6-dideoxy-6-(dodecylsulfonyl)-α-D-glucopyranosyl-(1→6)-O-[2,6-diamino-2,3,6-trideoxy-α-D-ribo-hexopyranosyl-(1→4)]-2-deoxy-D-streptamine]	31.3 (≈ 45.8 µM)	3.9 (≈ 5.7 µM)	62.5 (≈ 91.4 µM)	15.6 (≈ 22.8 µM)	> 62.5	15.6 (≈ 22.8 µM)	15.6 (≈ 22.8 µM)	7.8 (≈ 11.4 µM)	1.95 to 3.9 (≈ 2.85 to 5.7 µM)	3.9 (≈ 5.7 µM)	15.6 (≈ 22.8 µM)	7.8 (≈ 11.4 µM)	15.6 (≈ 22.8 µM)	3.9 (≈ 5.7 µM)	7.8 (≈ 11.4 µM)	7.8 (≈ 11.4 µM)	3.9 to 15.6 (≈ 5.7 to 22.8 µM)	0.48 (≈ 0.702 µM)	0.975 (≈ 1.43 µM)	1.95 (≈ 2.85 µM)	MIC [19]: 3.9 µg/mL (≈ 5.7 µM)
CCCCCCCCCCc1cn(C[C@H]2O[C@H](O[C@@H]3[C@@H](O)[C@H](O[C@H]4O[C@H](CN)[C@@H](O)C[C@H]4N)[C@@H](N)C[C@H]3N)[C@H](O)[C@@H](N)[C@@H]2O)nn1 [Compound 7a, O-3-Amino-3,6-dideoxy-6-(4-decyl-1H-1,2,3-triazol-1-yl)-α-D-glucopyranosyl-(1→6)-O-[2,6-diamino-2,3,6-trideoxy-α-D-ribo-hexopyranosyl-(1→4)]-2-deoxy-D-streptamine]	31.3 (≈ 47.5 µM)	15.6 (≈ 23.7 µM)	> 62.5	62.5 (≈ 94.9 µM)	> 62.5	62.5 (≈ 94.9 µM)	62.5 (≈ 94.9 µM)	31.3 (≈ 47.5 µM)	1.95 to 3.9 (≈ 2.96 to 5.92 µM)	3.9 (≈ 5.92 µM)	31.3 (≈ 47.5 µM)	15.6 (≈ 23.7 µM)	31.3 (≈ 47.5 µM)	15.6 (≈ 23.7 µM)	31.3 (≈ 47.5 µM)	15.6 (≈ 23.7 µM)	15.6 to 62.5 (≈ 23.7 to 94.9 µM)	0.975 (≈ 1.48 µM)	0.48 (≈ 0.729 µM)	0.975 (≈ 1.48 µM)	MIC [19]: 15.6 µg/mL (≈ 23.7 µM)

Reference: PMC5971061, “Differential Effects of Linkers on the Activity of Amphiphilic Tobramycin Antifungals” (Molecules : A Journal of Synthetic Chemistry and Natural …, 2018)
